# Experimental data taken from patent US9173915B1, “Antioxidant eye drops” (priority 2014, dated 2015).
# Like-named read-outs stand apart in the source and are kept apart here.
# Legend:
# [1] = test system: lens oxidative stress after UV irradiation; assay: UV-induced cataract model: lens GSH and 4-HNE after UV irradiation; format: in vivo, Sprague Dawley rats
# Excerpt: Exposure to UV irradiation is another major risk factor of cataractogenesis. UV-irradiation induces ROS, which results in a rapid loss of reduced lens gluthione (GSH), the major antioxidant in the lens, followed several weeks later by subsequent lens opacification. For this study, young female Sprague Dawley rats were divided into five equal groups. One group served as the non-irradiated control group, while the second group served as the untreated irradiated control group. The third group received topical Optixcare carbomer vehicle containing 3% JHX-4 (4-(5-hydroxypyrimidin-2-yl)-N,N-dimethyl-3,5-dioxopiperazine-1-sulfonamide (99% pure by HPLC), the fourth received the present antioxidant eye drops composition, prepared as described above and referred to as topical Optixcare EH, and the fifth group received 1 mL of the oral Ocu-GLO™ by gavage, as described above. Treatments began 3 days prior to irradiation and continued until termination of the experiment. Prior to irradiation, each rat was anesthetized by intraperitoneal (i.p.) injection of a mixture of 60 mg/kg of ketamine and 10 mg/kg of xylazine, and the right eye was dilated with 1% tropicamide ophthalmic solution. The contralateral eye was covered with an eye patch that was held in place with black tape. […] Protein levels in an aliquot of the supernatant were measured according to Bradford Assay. Another aliquot was deproteinized with equal volume of 20% TCA and the GSH levels in the deproteinized supernatants were measured at 412 nm according to the DTNB method.
# To confirm that the reduced GSH levels after UV exposure were linked to increased levels of ROS, the lenticular levels of the oxidized membrane lipid 4-hydroxynonenol (4-HNE) were determined using a competitive ELISA in the remaining homogenate supernatants by using the OxiSelect HINE Adduct Competitive ELISA Assay Kit (Cell Biolabs, Inc., San Diego, Calif.) according to the manufacturer's instructions.
# [2] = test system: neural retina oxidative stress / photoreceptor layer; assay: Light-induced retinal degeneration in dark adapted rats; format: in vivo, Wistar rats
# Excerpt: In the neural retina of dark adapted rats, exposure to light also results in the generation of ROS, iron dysregulation, and the release of iron from ferritin. In this animal model of age-related macular degeneration (AMD), Wistar rats were either orally treated with diet containing 0.05% of the multifunctional antioxidant JHX-4 or topically treated b.i.d. with Optixcare EH, with treatment beginning at the onset of two weeks of dark adaption.
# As previously described in detail by Randazzo et al. (PLoS One, 2011, 6(7), p. e21926), groups containing twelve 4-5-week-old male Wistar rats receiving either normal rat chow (untreated), normal rat chow and topically treated with Optixcare EH b.i.d., or oral diet containing 0.05% of the multifunctional antioxidant JHX-4 were dark adapted for two weeks. Rats from each group were then individually placed into acrylic, flat bottom rodent restraints (Plas-labs, Inc., Lansing Mich.) in a light box apparatus and exposed for three hours to 1000 1× of cool white fluorescent lights (Lights of America, Los Angeles, Calif.). An additional group of non-treated rats were also placed into the light box apparatus for three hours, but not exposed to light (non-light-damaged rats, NLD). Immediately following light exposure, 8 light-damaged (LD) rats from each group and 8 NLD rats were immediately euthanized and the neural retinas were carefully dissected from the enucleated eye and frozen on dry ice for subsequent analysis. Subsequently, the thawed retinas were homogenized in lysis buffer for ELISA determinations using 4-HNE-His Adduct and Nitrotyrosine ELISA Kits. Additional thawed retinas were homogenized in RIPA buffer containing Halt Protease and Phosphatase Inhibitor Cocktail for western blot analysis of thioredoxin (TRx) and thioredoxin reductase (TRxR) expression levels. Protein samples were separated by SDS-PAGE and transferred onto nitrocellulose membranes. After blocking the membrane with 5% dry milk in 0.1% TBS-T, the membranes were then incubated overnight at 4° C. with the primary antibodies anti-TRx (1:1000 dilution) or anti-TRxR (1:2000 dilution). Subsequently, after washing with TBS-T, the membranes were incubated with a HRP-conjugated secondary antibody for 1 hour. The protein bands were visualized by chemiluminescence and exposure to x-ray film. Finally, the membranes were re-probed with antibody against GAPDH as an internal control. All visualized protein levels were quantified using the NIH ImageJ program available online at rsbweb.nih.gov/ij/.
# Therefore, topical administration of Optixcare EH to light-exposed dark-adapted rats was not anticipated to result in any significant protection of retinal oxidative stress compared to the oral administration of the multifunctional antioxidant JHX-4. […] ROS and free radicals generated by retinal exposure to acute excessive light are also mediated by the thioredoxin (TRx)/thioredoxin reductase (TRxR) defense system. Therefore, the expression levels of both TRx and TRxR in the neural retinas of these rats were also examined.
# The reduction of oxidative stress by JHX-4 and Optixcare EH was confirmed by histological measurements of the photoreceptor layers. After light exposure as described above, select rats in each group were returned to the dark environment for 7 additional days. Each rat was then euthanized by carbon dioxide asphyxiation, and the dorsal ventral orientation of each eye was marked with a cautery tool. […]
# [3] = test system: human RPE19 cells; set-up: unit of the concentration uncertain; conditions: cited from earlier work
# [4] = after 3 hours light exposure, ELISA
Compound,"lenticular 4-HNE levels vs untreated rats exposed to UV irradiation (FIG. 4) ([1]; UV exposed lenses, competitive ELISA)","4-HNE lens levels, UV exposed vs unexposed contralateral eyes ([1]; competitive ELISA)","lens GSH levels, UV irradiated eye vs unexposed contralateral lens (FIG. 3) ([1]; pretreated 3 days, two days after 15 minutes UV irradiation)","photoreceptor layer (outer nuclear layer thickness), histology ([2]; 7 days in the dark after light exposure)","4-HNE-histidine adduct levels in the neural retina (FIG. 5A) [2, 4]","nitrotyrosine adduct levels in the neural retina (FIG. 5B) [2, 4]","expression of thioredoxin (TRx) in the neural retina (FIG. 6A) ([2]; light exposed rats, western blot)","expression of thioredoxin reductase (TRxR) in the neural retina (FIG. 6B) ([2]; light exposed rats, western blot, p<0.05)",reduction of in vitro proliferation of human RPE19 cells ([3]; 50 (unit uncertain)) [%],reduction of in vitro proliferation of human RPE19 cells ([3]; 100 (unit uncertain)) [%]
"CN(C)S(=O)(=O)N1CC(=O)N(c2ncc(O)cn2)C(=O)C1 [JHX-4, 4-(5-hydroxypyrimidin-2-yl)-N,N-dimethyl-3,5-dioxopiperazine-1-sulfonamide]",significantly lower,statistically similar,not significantly lower,only slightly decreased,neither oxidative marker significantly increased,neither oxidative marker significantly increased,reduced,significantly lowered,,
Oc1ccc(C=Cc2cc(O)cc(O)c2)cc1 [resveratrol],,,,,,,,,10,25
